One assay has as its system A549 lung cancer. Nature of the assay: Tumorsphere formation assay, A549. The class given is cell-based. The conditions noted are these: five days. The method, then:
(§1) A single cell suspension was prepared using enzymatic (1× Trypsin-EDTA, T3924, Sigma Aldrich), and manual disaggregation (25 gauge needle). Cells were plated at a density of 5000 cells/well in tumorsphere media (DMEM-F12/B27/EGF (20ng/ml)/Pen-Strep) in non-adherent conditions, in 6-well plates coated with (2-hydroxyethylmethacrylate) (poly-HEMA, P3932, Sigma) in the presence of mDIVI1 or vehicle. After 5 days of culture in a humidified incubator at 37° C, tumorspheres bigger than 50 μm were counted using an eye piece graticule.

In assay [1] the test system is MCF7 cells. The assay is described as follows: Bradford assay (protein content). The class given is cell-based, Human. The method, then: Extracellular acidification rate (ECAR) and oxygen consumption rate (OCR) were measured in a XF96 Extracellular Flux Analyzer (Seahorse Biosciences). Briefly, 1 × 10^4 MCF7 cells per well were seeded in XF96 plates and incubated with complete medium. When cells were attached, mDIVI1 and vehicle treatments were added. Six replicates were run for each condition. After 48 hours, un-buffered DMEM XF medium supplemented with 2 mM glutamine (pH 7.4) was added to the cells, and placed in a 37° C CO2-free incubator for 1 hour. Ten mM glucose, 1 μM oligomycin and 100 mM 2-deoxyglucose (2-DG) were injected into the media at different time points and ECAR was measured. Likewise, ECAR and OCR were quantified using un-buffered DMEM XF medium supplemented with 2 mM glutamine, 2 mM sodium pyruvate and 10 mM glucose. One μM oligomycin, 0.9 μM FCCP and 1 μM rotenone and antimycin A were injected into the media at different time points and OCR and ECAR were measured.
Cells were finally lysed with 0.1 M NaOH and protein lysate was subsequently stained with Quick Start™ Bradford 1× Dye Reagent (500–0205, BioRad) to normalise results. All parameters were calculated according to manufacturer.

Assay [2] concerns MCF7 cells. The assay is described as follows: PrestoBlue viability assay. The assay is classed as cell-based, Human. The method, then: Cell viability was measured using the resazurin-based PrestoBlue reagent (A-13261, ThermoFisher Scientific). Briefly, 5 × 10^3 MCF7 cells were seeded into 96-well black plates. When cells were attached mDIVI1 or vehicle were added to the cells. After 2 or 5 days, PrestoBlue reagent was added to the cells and incubated for 2 hours. Plates were finally read using a FluoStar Omega plate reader (BMG Labtech) at an excitation wavelength of 544 and an emission wavelength of 590 nm. Background measurements were subtracted from all values.

Assay [3] relates to MCF7 cells. Nature of the assay: Extracellular flux analysis (ECAR and OCR, Seahorse XF96). The assay is classed as cell-based, Human. The conditions noted are these: 48 hours.
In a further assay the test system is Hedgehog signalling. The assay is described as follows: Luciferase reporter assay MCF7-GFP-GLI(luc). The assay is classed as cell-based, Human. The conditions noted are these: 50 µM, 2 and 5 days. The method, then:
The Cignal Lenti reporter assay (luc) was used to monitor the activity of several signalling pathways in MCF7-GFP cells as explained previously. Luciferase Assay System (E1501, Promega) was performed according to manufacturer’s instructions. 1 × 10^4 MCF7 were seeded in black-walled 96 well plates. When cells were attached, drug treatments were added for 18, 48 hours and 5 days. After treatment, Luciferase Assay was performed according to manufacturer’s instructions and light signal was acquired in the Xenogen VivoVision IVIS Lumina. Results were normalized by SRB staining of cells grown in 96-well plates in parallel.
SRB (S9012, Sigma) measures total biomass by staining cellular proteins. After treatment, cells were fixed in 10% tricloroacetic acid (T9159, Sigma) for 1 hour at 4° C, stained with SRB (S9012, Sigma) for 15 minutes, and washed 3 times with 1% acetic acid (27225, Sigma). The incorporated die was solubilized with 10 mM Tris Base, pH 8.8 (T1503, Sigma). Absorbance was spectrophotometrically measured at 562 nm in a FluoStar Omega plate reader (BMG Labtech). Background measurements were subtracted from all values.

Another assay relates to A375 melanoma. The assay is described as follows: Tumorsphere formation assay, A375. The assay is classed as cell-based. Particulars: five days. The method, then:
as §1

With `COc1cc(-n2c(=S)[nH]c3ccccc3c2=O)c(Cl)cc1Cl` [mDIVI1, 3-(2,4-Dichloro-5-methoxyphenyl) 2,3-dihydro 2-thioxo-4(1H) quinazolinone], the “decrease of A549 tumorsphere forming capacity” value in the assay with A549 lung cancer (10 µM) is given as over 15%; in the assay on A549 lung cancer (50 µM), over 80%. Further, the “effect on MCF7 protein content” value in the assay with MCF7 cells [1] (10 µM, 48 hours) is on record as “slightly decreased”; with MCF7 cells [1] (20 µM, 2 days), “significantly reduced”. The “reduction of MCF7 protein content” value with MCF7 cells [1] (50 µM, 48 hours) was about 40%. The “effect on MCF7 cell viability” value in the assay with MCF7 cells [2] (10 µM, 48 hours) is on record as “did not decrease viability”. Also, the “reduction of MCF7 cell viability” value with MCF7 cells [2] (10 µM, five days) is reported as 20%; in the assay with MCF7 cells [2] (50 µM, 48 hours) it was 20%; in the assay on MCF7 cells [2] (50 µM, five days) it was “over 65%”; with MCF7 cells [2] (100 µM, 48 hours), 20%; in the assay on MCF7 cells [2] (100 µM, five days), 85%. In addition, the “basal glycolysis (ECAR)” value in the assay on MCF7 cells [3] is “did not have a significant effect”. In the assay on MCF7 cells [3], the “oxygen consumption linked to ATP production” value is listed as “significantly reduced”. For the same molecule, the “oxygen consumption linked to basal respiration” value in the assay with MCF7 cells [3] is “significantly reduced”. Also, in the assay on MCF7 cells [3] (all mDIVI1 concentrations), the spare respiratory capacity entry is “slightly increased”. Besides, in the assay on MCF7 cells [3] (vs vehicle), the OCR/ECAR ratio result is “decreased dose-dependently”. Also, the “oxygen consumption linked to maximal respiration” value in the assay with MCF7 cells [3] (to a lesser extent, at higher concentrations) is given as “significantly reduced”. Further, in the assay on MCF7 cells [3] (≥10 µM), the “glycolytic capacity (ECAR)” value was “reduced”. The “glycolytic reserve (ECAR)” value with MCF7 cells [3] (≥10 µM) is “reduced”. In the assay on Hedgehog signalling, the “Hedgehog/GLI pathway luciferase activity” value was “strikingly caused the inhibition”. For the same molecule, the entries for the “decrease of A375 tumorsphere forming capacity” value in the assay with A375 melanoma (10 µM) and in the assay with A375 melanoma (50 µM) were “over 35%” and “over 90%”, respectively.

The values are drawn from publication PMC5862576, “Mitochondrial fission as a driver of stemness in tumor cells: mDIVI1 inhibits mitochondrial function, cell migration and cancer stem cell (CSC) signalling” (Oncotarget, 2018).
